Activity calls are given as the source filed them. The rule behind the calls is not given here.
Columns and labels:
[1] = target: T1, Caspase-1 (Homo sapiens) (UniProt P29466); experiment: Inhibition of recombinant human caspase-1 expressed in Escherichia coli BL21 cells at 5 to 50 uM using […] as substrate incubated for 30 mins; settings: dose 5-50 µM
T1 sequence (whole entry): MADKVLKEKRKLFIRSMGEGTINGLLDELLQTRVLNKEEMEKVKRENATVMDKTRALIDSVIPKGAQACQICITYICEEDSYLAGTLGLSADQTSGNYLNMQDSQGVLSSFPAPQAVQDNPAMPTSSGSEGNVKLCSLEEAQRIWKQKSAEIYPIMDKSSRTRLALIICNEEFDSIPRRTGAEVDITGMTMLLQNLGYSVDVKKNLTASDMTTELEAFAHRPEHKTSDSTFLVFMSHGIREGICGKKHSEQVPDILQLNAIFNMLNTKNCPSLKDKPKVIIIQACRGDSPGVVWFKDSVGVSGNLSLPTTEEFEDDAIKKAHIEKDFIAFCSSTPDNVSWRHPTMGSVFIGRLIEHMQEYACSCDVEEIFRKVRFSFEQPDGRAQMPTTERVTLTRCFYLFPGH

[2] = Acute toxicity in Kunming mouse assessed as change in ALT level at 100 mg/kg, ip administered for 14 days; format: organism-based; settings: in vivo, 336 h, time 14 day
[3] = system: Caspase-1 (Homo sapiens), P29466 [C285A]; experiment: Binding affinity to recombinant caspase-1 C285A mutant (unknown origin) at 2 uM by SDS-PAGE analysis
Caspase-1 (Homo sapiens), P29466 [C285A], sequence (P29466 whole entry C285A): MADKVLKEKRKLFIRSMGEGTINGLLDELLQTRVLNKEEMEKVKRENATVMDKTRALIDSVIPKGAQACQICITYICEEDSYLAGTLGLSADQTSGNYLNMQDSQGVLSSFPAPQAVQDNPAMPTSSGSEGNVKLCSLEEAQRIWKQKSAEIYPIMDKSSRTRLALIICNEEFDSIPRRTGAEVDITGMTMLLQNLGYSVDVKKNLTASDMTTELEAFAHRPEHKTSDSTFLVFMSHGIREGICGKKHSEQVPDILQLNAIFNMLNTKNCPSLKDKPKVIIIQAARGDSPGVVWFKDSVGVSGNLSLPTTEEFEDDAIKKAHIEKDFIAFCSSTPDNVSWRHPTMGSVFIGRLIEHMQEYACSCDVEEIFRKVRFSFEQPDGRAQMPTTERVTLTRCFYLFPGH

[4] = target: T2, Caspase-3 (Mus musculus) (UniProt P70677); experiment: Inhibition of cisplatin induced caspase-3 activation in mouse J774.A1 cells at 2 uM preincubated for 30 mins followed by cisplatin addition and incubated overnight; format: cell-based
T2 sequence (whole entry): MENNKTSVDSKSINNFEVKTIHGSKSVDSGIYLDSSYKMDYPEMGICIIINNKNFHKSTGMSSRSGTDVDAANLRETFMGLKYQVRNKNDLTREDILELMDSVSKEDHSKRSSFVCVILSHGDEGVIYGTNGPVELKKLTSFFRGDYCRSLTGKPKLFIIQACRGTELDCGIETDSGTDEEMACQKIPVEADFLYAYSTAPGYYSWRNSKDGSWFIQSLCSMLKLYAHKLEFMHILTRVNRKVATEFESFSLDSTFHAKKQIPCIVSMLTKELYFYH

[5] = system: J774.A1; experiment: Inhibition of ASC colocalization in LPS/nigericin stimulated mouse J774.A1 cells; format: functional, cell-based
[6] = target: NACHT, LRR and PYD domains-containing protein 3 (Mus musculus) (UniProt Q8R4B8); experiment: Inhibition of NLRP3 inflammasome activation in LPS/nigericin stimulated mouse J774.A1 cells assessed as reduction in IL-18 production pretreated with LPS for 3 hrs prior to compound addition for 30 mins followed by nigericin addition and measured after 45 mins by ELISA; format: cell-based; settings: time 75.0 min
NACHT, LRR and PYD domains-containing protein 3 (Mus musculus), sequence (Q8R4B8 whole entry, the tested form may be a part): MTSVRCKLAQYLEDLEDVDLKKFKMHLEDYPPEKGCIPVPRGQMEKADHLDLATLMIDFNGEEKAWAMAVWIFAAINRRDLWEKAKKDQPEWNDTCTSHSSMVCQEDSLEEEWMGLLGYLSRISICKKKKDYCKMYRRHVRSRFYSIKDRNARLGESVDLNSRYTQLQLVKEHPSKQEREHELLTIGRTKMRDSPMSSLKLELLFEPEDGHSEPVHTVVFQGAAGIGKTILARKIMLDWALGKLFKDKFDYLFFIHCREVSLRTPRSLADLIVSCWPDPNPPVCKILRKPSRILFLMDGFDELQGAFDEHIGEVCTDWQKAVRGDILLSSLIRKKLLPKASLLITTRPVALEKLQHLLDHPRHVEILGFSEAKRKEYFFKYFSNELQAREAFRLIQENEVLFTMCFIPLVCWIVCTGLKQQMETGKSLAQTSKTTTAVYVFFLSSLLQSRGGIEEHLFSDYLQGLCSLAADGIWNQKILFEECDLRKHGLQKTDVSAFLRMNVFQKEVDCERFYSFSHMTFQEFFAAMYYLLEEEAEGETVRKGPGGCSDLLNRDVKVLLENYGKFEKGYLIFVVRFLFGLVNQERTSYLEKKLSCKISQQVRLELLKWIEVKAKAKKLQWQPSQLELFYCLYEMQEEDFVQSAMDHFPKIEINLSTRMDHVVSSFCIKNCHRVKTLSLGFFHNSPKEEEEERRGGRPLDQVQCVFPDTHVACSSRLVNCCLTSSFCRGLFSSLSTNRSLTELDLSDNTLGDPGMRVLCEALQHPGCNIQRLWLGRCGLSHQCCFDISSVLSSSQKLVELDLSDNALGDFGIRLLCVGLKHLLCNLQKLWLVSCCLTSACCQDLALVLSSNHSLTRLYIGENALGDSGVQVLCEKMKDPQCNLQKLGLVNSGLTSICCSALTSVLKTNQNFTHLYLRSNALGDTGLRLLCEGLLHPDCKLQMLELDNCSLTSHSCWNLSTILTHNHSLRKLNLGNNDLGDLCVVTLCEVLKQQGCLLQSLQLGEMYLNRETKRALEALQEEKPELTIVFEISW

[7] = Acute toxicity in Kunming mouse assessed as kidney damage at 100 mg/kg, ip administered for 14 days; format: organism-based; settings: in vivo, 336 h, time 14 day
[8] = target: NACHT, LRR and PYD domains-containing protein 3 (Mus musculus) (UniProt Q8R4B8); experiment: Inhibition of NLRP3 inflammasome activation in LPS primed Casp1 knockout mouse BMDM cells transfected with caspase-1 C285A/C397A double mutant assessed as reduction in IL-1beta release at 2 uM preincubated for 30 mins followed by nigericin stimulation; format: cell-based
[9] = target: T3, Caspase-1 (Homo sapiens, UniProt P29466); experiment: Inhibition of recombinant human caspase-1 expressed in Escherichia coli BL21 cells using […] as substrate incubated for 30 mins
T3 sequence (P29466 whole entry): T1 sequence (whole entry)

[10] = system: Mus musculus; experiment: Anti-inflammatory activity in MSU/C18:0 free fatty acid induced Kunming mouse model of gouty arthritis assessed as reduction p20 expression at 5 to 20 mg/kg, ip preadministered with compound for 30 mins followed by MSU/C18:0 free fatty acid injection and measured after 24 hrs by Western blotting analysis; format: functional, organism-based; settings: dose 5-20 mg/kg, time 24.5 hrs
[11] = system: THP-1; experiment: Inhibition of p20 fragment of caspase 1 protein expression in LPS/nigericin stimulated human THP-1 cells supernatant at 0.5 to 2 uM by Western blotting analysis; format: functional, cell-based; settings: dose 0.5-2 µM
[12] = target: NACHT, LRR and PYD domains-containing protein 3 (Mus musculus) (UniProt Q8R4B8); experiment: Inhibition of NLRP3 inflammasome activation in mouse J774.A1 cells assessed as reduction in NLRP3 mRNA expression at 0.5 to 2 uM preincubated for 30 mins followed by LPS stimulation for 24 hrs by RT-qPCR analysis; format: cell-based; settings: dose 0.5-2 µM, time 24.5 hrs
[13] = system: THP-1; experiment: Effect on pro-1L-1beta protein expression in LPS/ATP stimulated human THP-1 cells supernatant by Western blotting analysis; format: functional, cell-based
[14] = target: NACHT, LRR and PYD domains-containing protein 3 (Mus musculus) (UniProt Q8R4B8); experiment: Inhibition of NLRP3 inflammasome activation in LPS primed Casp1 knockout mouse BMDM cells transfected with caspase-1 C397A mutant assessed as reduction in IL-1beta release at 2 uM preincubated for 30 mins followed by nigericin stimulation; format: cell-based
[15] = target: NACHT, LRR and PYD domains-containing protein 3 (Mus musculus) (UniProt Q8R4B8); experiment: Inhibition of NLRP3 inflammasome activation in LPS primed Casp1 knockout mouse BMDM cells transfected with caspase-1 C395A mutant assessed as reduction in IL-1beta release at 2 uM preincubated for 30 mins followed by nigericin stimulation; format: cell-based
[16] = target: NACHT, LRR and PYD domains-containing protein 3 (Mus musculus) (UniProt Q8R4B8); experiment: Inhibition of NLRP3 inflammasome activation in mouse J774.A1 cells assessed as reduction in NLRP3 protein expression at 0.5 to 2 uM preincubated for 30 mins followed by LPS stimulation for 6 hrs by Western blotting analysis; format: cell-based; settings: dose 0.5-2 µM, time 6.5 hrs
[17] = target: NACHT, LRR and PYD domains-containing protein 3 (Mus musculus) (UniProt Q8R4B8); experiment: Inhibition of NLRP3 inflammasome activation in LPS primed Casp1 knockout mouse BMDM cells transfected with caspase-1 C285A mutant assessed as reduction in IL-1beta release at 2 uM preincubated for 30 mins followed by nigericin stimulation; format: cell-based
[18] = system: THP-1; experiment: Inhibition of p20 fragment of caspase 1 protein expression in LPS/ATP stimulated human THP-1 cells supernatant by Western blotting analysis; format: functional, cell-based
[19] = system: Caspase-1 (Homo sapiens), P29466 [C397A]; experiment: Binding affinity to recombinant caspase-1 C397A mutant (unknown origin) at 2 uM by SDS-PAGE analysis
Caspase-1 (Homo sapiens), P29466 [C397A], sequence (P29466 whole entry C397A): as the sequence (P29466 whole entry C285A) above, with A285C, C397A counted along it

[20] = system: Caspase-1 (Homo sapiens), P29466 [C270A]; experiment: Binding affinity to recombinant caspase-1 C270A mutant (unknown origin) at 2 uM by SDS-PAGE analysis
Caspase-1 (Homo sapiens), P29466 [C270A], sequence (P29466 whole entry C270A): as the sequence (P29466 whole entry C285A) above, with C270A, A285C counted along it

[21] = system: J774.A1; experiment: Downregulation of IKKalpha/beta phosphorylation in mouse J774.A1 cells at 0.5 to 2 uM preincubated for 30 mins followed by LPS addition and measured after 2 hrs by Western blotting analysis; format: functional, cell-based; settings: dose 0.5-2 µM, time 2.5 hrs
[22] = system: J774.A1; experiment: Inhibition of pyroptosis in mouse J774.A1 cells assessed as reduction in number of annexin V and PI positive cells pretreated with LPS for 3 hrs followed by compound addition in presence of nigericin by flow cytometry analysis; format: functional, cell-based
[23] = system: J774.A1; experiment: Inhibition of pyroptosis in mouse J774.A1 cells assessed as reduction in LDH release at 0.5 to 2 uM pretreated with LPS for 3 hrs followed by compound addition in presence of nigericin; format: functional, cell-based; settings: dose 0.5-2 µM
[24] = system: Caspase-1 (Homo sapiens), P29466 [C285A]; experiment: Binding affinity to Flag-tagged caspase-1 C285A mutant (unknown origin) expressed in HEK293T cells by pull-down assay; format: cell-based; settings: dose 2.0 µM

## COc1ccc2c(c1)[C@]1(C=C[C@H](N=C=S)C[C@H]1C(=O)OC(C)(C)C)C(=O)N2C(=O)OCc1ccccc1
[1]
  inhibition (active/not active): Active
[2]
  Activity: Non-Toxic
[3]
  Activity: inactive
[4]
  inhibition: inactive
[5]
  inhibition: Active
[6]
  inhibition: Dose-Dependent Effect
[7]
  Activity: Non-Toxic
[8]
  inhibition: inactive
[9]
  IC50: 650 nM
[10]
  Activity: Active
[11]
  inhibition: Active
[12]
  inhibition: Active
[13]
  Activity: inactive
[14]
  inhibition: inactive
[15]
  inhibition: inactive
[16]
  inhibition: Active
[17]
  inhibition: inactive
[18]
  inhibition: Active
[19]
  Activity: inactive
[20]
  Activity: Active
[21]
  Activity: Active
[22]
  inhibition: Active
[23]
  inhibition: Active
[24]
  Activity: inactive
